The text below walks through data of patent US11414387B2, “Oxoacridinyl acetic acid derivatives and methods of use” (Stingthera, Inc., priority 2017, dated 2022).

Assay [1] deals with T1, hSTING-HAQ (Homo sapiens (Human), UniProt Q86WV6, G230A/H232R/R293Q). Description: STING differential scanning fluorimetry (DSF) assay, HAQ human STING. The settings on record: HAQ human STING aa140-379, net shift in melting temperature.
Experimental: A STING DSF assay was performed to determine protein thermostability shift in response to small molecule ligand binding. A STING thermostability shift assay based on differential scanning fluorimetry was used to measure (1) the net shift in melting temperature (ΔTm)between the apo and ligand-bound states of the STING protein and (2) the concentration of the thermal denaturation transition (EC50) as a surrogate measure of binding affinity (K). […] Protein in assay buffer was transferred to a 384 well plate and incubated with the hydrophobic fluorescent dye SYBR Orange. A temperature ramp was applied to the plate and the resulting dye fluorescence was plotted as a function of temperature. The first derivative of this function (dF/dT) was then used to extrapolate the melting temperature of the protein at various concentrations of compound and determine the thermal denaturation profile of a protein/compound complex.
• 1. Protein construct (affinity tag removal vs SUMO-fusion construct) • 2. Protein concentration • 3. Dye concentration • 4. Buffer • 5. Thermal ramp velocity • 6. DMSO tolerance • 7. Compound titration parameters • 8. […] 5 μM purified Target STING Protein • 3. 8 μM Sypro Orange Dye • 4. Buffer: 100 mM NaCl, 30 mM HEPES, pH 7.5 • 5. Thermal Ramp: 0.5° C./min • 6. <1% DMSO • 7. 11 point, 2 fold dilution, duplicate, 300 μM high concentrations • 8.
In assay [2] the target is hSTING-WT (Homo sapiens (Human), UniProt Q86WV6, H232R). Description: Radiometric filtration binding competition assay, hSTING-WT.
hSTING-WT, sequence (Q86WV6 140-379 H232R): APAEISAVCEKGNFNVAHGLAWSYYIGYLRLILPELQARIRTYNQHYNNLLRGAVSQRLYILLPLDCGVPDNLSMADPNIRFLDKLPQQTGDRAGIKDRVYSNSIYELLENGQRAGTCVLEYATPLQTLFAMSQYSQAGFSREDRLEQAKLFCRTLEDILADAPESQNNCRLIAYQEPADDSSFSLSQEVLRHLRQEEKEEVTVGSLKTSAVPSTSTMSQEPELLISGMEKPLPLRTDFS
For assay [3], the target named is hSTING-R232 (Homo sapiens (Human), UniProt Q86WV6, H232R). Description: STING differential scanning fluorimetry (DSF) assay, WT human STING. The settings on record: WT (R232) human STING aa140-379, net shift in melting temperature.
hSTING-R232, sequence (Q86WV6 140-379 H232R): as above
Assay [4] deals with mSTING (Mus musculus, UniProt Q3TBT3). Description: Radiometric filtration binding competition assay, mSTING.
In assay [5] the target is mSTING-R232 (Mus musculus, UniProt Q3TBT3). Nature of the assay: STING differential scanning fluorimetry (DSF) assay, mouse STING. As to conditions: net shift in melting temperature.
Assay [6] addresses STING protein (Homo sapiens (Human), UniProt Q86WV6, H232R). Nature of the assay: Cell based reporter assay of IRF activation (IRF-luciferase), THP1-dual-KI R232. The settings on record: read-out: THP1-dual-KI R232_IRF(Luciferase)_Activity Maximum measured (%).
Text: Briefly, THP-1 monocytes were transfected and selected for stable integration of 2 reporter constructs. Clones incorporating stably integrated vectors were further selected by antibiotic resistance to blastocidin and zeocin. The reporter constructs included: (1) firefly luciferase reporter gene under the control of an ISG54 promoter fused to five interferon (IFN)-stimulated response elements to measure IRF transcription factor binding activity and (2) secreted embryonic alkaline phosphatase reporter gene under transcription control of an IFN-beta minimal promoter fused to 5 copies of the NFkB consensus transcriptional response element and 3 copies of the c-Rel binding site.
The resulting THP-1 cell line was further modified to incorporate 3 amino acid point mutations (H71R A230G Q293R). This modification of the native TMEM173 gene in THP-1 cells (HAQ) was designed to produce a cell reporter that expressed the most common allelic variant in the human population (THP-1 R232, available from InvivoGen). Alternatively, the TMEM173 gene was knocked out to provide a congenic control to counter-screen for compound activation that was independent of the STING protein (THP-1 STING KO).
Once cell lines were established, reporter assay protocols were developed and optimized to screen small molecule compounds for agonist activity. Assay optimization for efficacy and Z′ value included titration of the following parameters:
• 1. Cell pre-activation with PMA • 2. Cell seeding density • 3. DMSO tolerance • 4. Media selection • 5. FBS concentration • 6. Incubation time • 7. Co-Assessment of cell viability by CTG assay • 8. Appropriate HPE and ZPE controls • 9. Dose Response Titration Final Assay SOP Conditions • 1. No pre-activation with PMA • 2. 5×10^4 cells/well in 96 well plate format • 3. <0.5% DMSO • 4. […] 10% FBS • 6. 14-18 hr incubation • 7. Cell Titer Glo reagent (Promega) following supernatant removal • 8.
Assay [7] has as its target T1, hSTING-HAQ. Description: Radiometric filtration binding competition assay, hSTING-HAQ.
Experimental: A radiometric filtration binding competition assay was performed to quantify the binding affinity of compounds of the present application for the human or mouse STING protein, or associated HAQ human isoform. […] The resulting dose response was fit by non-linear regression to determine an IC50 value, from which a Ki value for each compound was extrapolated.
The resulting complexes were then filtered, dried, and scintillation fluid was added and the remaining radio signal was measured to determine the degree of compound ligand inhibition. This assay format was optimized for both the WT and HAQ isoforms of the human protein and the mouse orthologue protein.
Probe Concentration: Minimum concentration that achieved max assay window • g. Assay Format: Scintillation Proximity Bead or Filtration Binding Plate • h. […] Assay incubation times for successive incubation steps
WT-hSWAT: WT_FBA_HIS-SUMO-hSWAT IC50 (μM) (“WT”=Wild-type); HAQ-hSWAT: HAQ_FBA_HIS-SUMO-hSWAT IC50 (μM) (“HAQ”=human HAQ allele of STING protein); and WT-mSWAT: MOUSE_FBA_HIS-SUMO-mnSWAT IC50 (μM) which is the mouse isoform of STING protein.
Assay [8] has as its target hSTING-CTD (Homo sapiens (Human), UniProt Q86WV6). Nature of the assay: Human STING protein FP competition concentration response assay. In kind it is binding. The procedure, abridged: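 Compound, serially diluted 2-fold over 14 concentrations, competes with 2′-Fluo-AHC-c-di-GMP (30 nM) for binding to hSTING-CTD (10 uM) in PBS with 3.35% DMSO at room temperature for 10-20 min. Anisotropy change gives IC50 by sigmoidal four-parameter regression.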

STING protein, sequence (Q86WV6 whole entry H232R): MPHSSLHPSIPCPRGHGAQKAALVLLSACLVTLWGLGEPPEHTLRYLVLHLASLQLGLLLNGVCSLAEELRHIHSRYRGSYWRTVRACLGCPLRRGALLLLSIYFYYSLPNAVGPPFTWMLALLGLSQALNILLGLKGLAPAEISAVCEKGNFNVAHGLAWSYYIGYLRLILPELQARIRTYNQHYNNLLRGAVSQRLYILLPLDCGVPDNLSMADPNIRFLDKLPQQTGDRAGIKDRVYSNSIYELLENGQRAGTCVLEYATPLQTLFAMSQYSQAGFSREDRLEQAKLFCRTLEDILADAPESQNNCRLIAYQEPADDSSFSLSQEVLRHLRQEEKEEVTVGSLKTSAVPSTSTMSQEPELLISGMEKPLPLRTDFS
T1 sequence (Q86WV6 140-379 G230A/H232R/R293Q): as the sequence (Q86WV6 140-379 H232R) above, with G91A, R154Q counted along it
hSTING-CTD, sequence (Q86WV6 135-379): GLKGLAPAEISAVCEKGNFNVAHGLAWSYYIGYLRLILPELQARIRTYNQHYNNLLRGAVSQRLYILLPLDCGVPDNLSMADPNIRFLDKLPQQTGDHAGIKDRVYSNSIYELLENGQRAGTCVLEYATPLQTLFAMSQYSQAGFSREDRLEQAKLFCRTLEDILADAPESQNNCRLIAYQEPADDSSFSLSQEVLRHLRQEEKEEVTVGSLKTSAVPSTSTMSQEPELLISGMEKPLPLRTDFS

Regarding `O=C(O)Cn1c2cc(NC3CCCCC3)ccc2c(=O)c2ccc(Cl)c(Br)c21` [Compound 110], in assay [1], the “HAQ_DSF_hSWAT Tm Shift (° C.)” value is listed as “D (“D” > 7° C.)”. The IC50 is below 20 µM in assay [2], below 20 µM in assay [4] and 20 to 100 µM in assay [7]. In addition, the “WT_DSF_hSWAT Tm Shift (° C.)” value in assay [3] is on record as “D (“D” > 7° C.)”. Moreover, in assay [5], the “MOUSE DSF_6xHIS-SUMO Tm Shift (° C.)” value was “D (“D” > 15° C.)”. For the same compound, in assay [6], the Emax was above 50%.

For `CC(C)c1ccc2c(=O)c3ccc(Cl)c(Br)c3n(CC(=O)O)c2c1` [Compound 111], the “HAQ_DSF_hSWAT Tm Shift (° C.)” value in assay [1] is “D (“D” > 7° C.)”. In addition, the IC50 in assay [8] is below 100 µM; in assay [2], 20 to 100 µM; in assay [4], 20 to 100 µM; in assay [7] it was 100 to 300 µM. Moreover, in assay [3], the “WT_DSF_hSWAT Tm Shift (° C.)” value was “D (“D” > 7° C.)”. In assay [5], the “MOUSE DSF_6xHIS-SUMO Tm Shift (° C.)” value was “C (“C” = 5-15° C.)”. The Emax in assay [6] is above 50%.

For `O=C(O)Cn1c2cc(C3CCCCC3)ccc2c(=O)c2ccc(Cl)c(Cl)c21` [Compound 115], the “HAQ_DSF_hSWAT Tm Shift (° C.)” value in assay [1] is “C (“C” = 2-7° C,)”. The IC50 in assay [8] was below 100 µM; in assay [2], 20 to 100 µM; in assay [4], below 20 µM; in assay [7], 100 to 300 µM. For the same compound, in assay [3], the “WT_DSF_hSWAT Tm Shift (° C.)” value is reported as “C (“C” = 2-7° C,)”. The “MOUSE DSF_6xHIS-SUMO Tm Shift (° C.)” value in assay [5] is given as “D (“D” > 15° C.)”. For the same compound, the Emax in assay [6] was in the range of 25 to 50%.

On to `O=C(O)Cn1c2cc(C3CCCCC3)ccc2c(=O)c2ccc(Cl)c(Br)c21` [Compound 147], for which the “HAQ_DSF_hSWAT Tm Shift (° C.)” value in assay [1] is recorded as “D (“D” > 7° C.)”. In addition, the results for the IC50 in assay [2], in assay [4] and in assay [7] were below 20 µM, below 20 µM and 20 to 100 µM, respectively. Besides, the “WT_DSF_hSWAT Tm Shift (° C.)” value in assay [3] is listed as “D (“D” > 7° C.)”. Besides, the “MOUSE DSF_6xHIS-SUMO Tm Shift (° C.)” value in assay [5] is listed as “D (“D” > 15° C.)”. For the same compound, the Emax in assay [6] is above 50%.

As to `Cc1cccc(-c2ccc3c(=O)c4ccc(Cl)c(Cl)c4n(CC(=O)O)c3c2)c1` [Compound 151], in assay [1], the “HAQ_DSF_hSWAT Tm Shift (° C.)” value was “C (“C” = 2-7° C,)”. Besides, the IC50 in assay [2] is 20 to 100 µM; in assay [4], below 20 µM; in assay [7], 20 to 100 µM. Further, the “WT_DSF_hSWAT Tm Shift (° C.)” value in assay [3] is given as “B (“B” = 0-2° C.)”. Moreover, the “MOUSE DSF_6xHIS-SUMO Tm Shift (° C.)” value in assay [5] is “C (“C” = 5-15° C.)”. The Emax in assay [6] was below 5%.

For the compound `CC1(C)CC=C(c2ccc3c(=O)c4ccc(Cl)c(Cl)c4n(CC(=O)O)c3c2)CC1` [Compound 159], in assay [1], the “HAQ_DSF_hSWAT Tm Shift (° C.)” value is reported as “A (“A” < 0° C.)”. Further, the results for the IC50 in assay [2], in assay [4] and in assay [7] were 20 to 100 µM, below 20 µM and 20 to 100 µM, respectively. In addition, the “WT_DSF_hSWAT Tm Shift (° C.)” value in assay [3] is “A (“A” < 0° C.)”. The “MOUSE DSF_6xHIS-SUMO Tm Shift (° C.)” value in assay [5] is recorded as “C (“C” = 5-15° C.)”. The Emax in assay [6] is 5 to 25%.

As to `CC(C)(C)c1ccc2c(=O)c3ccc(Cl)c(Br)c3n(CC(=O)O)c2c1` [Compound 176], the “HAQ_DSF_hSWAT Tm Shift (° C.)” value in assay [1] is reported as “D (“D” > 7° C.)”. For the same compound, the IC50 was 20 to 100 µM in assay [2], below 20 µM in assay [4] and 20 to 100 µM in assay [7]. Besides, in assay [3], the “WT_DSF_hSWAT Tm Shift (° C.)” value is listed as “D (“D” > 7° C.)”. In addition, in assay [5], the “MOUSE DSF_6xHIS-SUMO Tm Shift (° C.)” value is reported as “D (“D” > 15° C.)”. Also, in assay [6], the Emax is above 50%.

For the compound `COc1c(Cl)ccc2c(=O)c3ccc(C(C)(C)C)cc3n(CC(=O)O)c12` [Compound 204], in assay [1], the “HAQ_DSF_hSWAT Tm Shift (° C.)” value is reported as “D (“D” > 7° C.)”. Also, the IC50 in assay [2] was below 20 µM; in assay [4], below 20 µM; in assay [7], 20 to 100 µM. Besides, the “WT_DSF_hSWAT Tm Shift (° C.)” value in assay [3] is reported as “D (“D” > 7° C.)”. Besides, the Emax in assay [6] is above 50%.

Take `COc1c(Cl)ccc2c(=O)c3ccc(Nc4ccccc4)cc3n(CC(=O)O)c12` [Compound 207]: the “HAQ_DSF_hSWAT Tm Shift (° C.)” value in assay [1] was “D (“D” > 7° C.)”. The half-inhibitory concentration (IC50) is below 20 µM in assay [2], below 20 µM in assay [4] and 20 to 100 µM in assay [7]. In assay [3], the “WT_DSF_hSWAT Tm Shift (° C.)” value is on record as “D (“D” > 7° C.)”. Besides, in assay [5], the “MOUSE DSF_6xHIS-SUMO Tm Shift (° C.)” value was “D (“D” > 15° C.)”. Moreover, the Emax in assay [6] is above 50%.

As to `CSc1c(Cl)ccc2c(=O)c3ccc(C(C)(C)C)cc3n(CC(=O)O)c12` [Compound 215], in assay [1], the “HAQ_DSF_hSWAT Tm Shift (° C.)” value is “D (“D” > 7° C.)”. Also, the IC50 in assay [2], in assay [4] and in assay [7] was below 20 µM each time. In addition, the “WT_DSF_hSWAT Tm Shift (° C.)” value in assay [3] was “D (“D” > 7° C.)”. The Emax in assay [6] was above 50%.

Regarding `O=C(O)Cn1c2cc(Nc3cnccn3)ccc2c(=O)c2ccc(Cl)c(Cl)c21` [Compound 217], in assay [1], the “HAQ_DSF_hSWAT Tm Shift (° C.)” value is “D (“D” > 7° C.)”. Also, the IC50 in assay [2] is 20 to 100 µM; in assay [4] it was below 20 µM; in assay [7], 100 to 300 µM. The “WT_DSF_hSWAT Tm Shift (° C.)” value in assay [3] is “D (“D” > 7° C.)”. Also, the Emax in assay [6] was above 50%.

For `O=C(O)Cn1c2cc(Nc3ccc(F)cc3)ccc2c(=O)c2ccc(Cl)c(Cl)c21` [Compound 218], the “HAQ_DSF_hSWAT Tm Shift (° C.)” value in assay [1] is listed as “D (“D” > 7° C.)”. For the same compound, the IC50 in assay [2] was below 20 µM; in assay [4] it was below 20 µM; in assay [7], 20 to 100 µM. Also, the “MOUSE DSF_6xHIS-SUMO Tm Shift (° C.)” value in assay [5] is given as “D (“D” > 15° C.)”. Further, the Emax in assay [6] is above 50%.

Regarding `COc1c(Cl)ccc2c(=O)c3ccc(C4CCCCC4)cc3n(CC(=O)O)c12` [Compound 220], the “HAQ_DSF_hSWAT Tm Shift (° C.)” value in assay [1] was “D (“D” > 7° C.)”. Moreover, the values for the IC50 in assay [2], in assay [4] and in assay [7] were below 20 µM, 20 to 100 µM and 20 to 100 µM, respectively. For the same compound, in assay [3], the “WT_DSF_hSWAT Tm Shift (° C.)” value is “D (“D” > 7° C.)”. Moreover, the Emax in assay [6] is above 50%.

`O=C(O)Cn1c2cc(Nc3ccc(F)cc3F)ccc2c(=O)c2ccc(Cl)c(Cl)c21` [Compound 221]: in assay [1], the “HAQ_DSF_hSWAT Tm Shift (° C.)” value is “D (“D” > 7° C.)”. For the same compound, the IC50 is below 20 µM in assay [2] and 20 to 100 µM in assay [7]. The “WT_DSF_hSWAT Tm Shift (° C.)” value in assay [3] is “D (“D” > 7° C.)”. Also, the Emax in assay [6] was above 50%.

As to `O=C(O)Cn1c2cc(-c3ccc(O)cc3)ccc2c(=O)c2ccc(Cl)c(Cl)c21` [Compound 223], in assay [1], the “HAQ_DSF_hSWAT Tm Shift (° C.)” value is “D (“D” > 7° C.)”. In addition, the IC50 in assay [2] was 20 to 100 µM; in assay [4] it was below 20 µM; in assay [7] it was 20 to 100 µM. Moreover, in assay [3], the “WT_DSF_hSWAT Tm Shift (° C.)” value was “C (“C” = 2-7° C,)”. Further, the Emax in assay [6] was below 5%.
